Target: Bcl-2 (Homo sapiens (Human), UniProt P10415)
Assay: Time Resolved-Fluorescence Resonance Energy Transfer (TR-FRET) Bcl-2 binding assay with F-Bak peptide probe
Settings: GST-Bcl-2 1 nM, F-Bak peptide probe 100 nM, Tb-anti-GST antibody 1 nM; Ki by Wang's equation
Protocol: Determination of the utility of compounds having Formula (I) as binders to and inhibitors of anti-apoptotic Bcl-2 proteins was performed using the Time Resolved-Fluorescence Resonance Energy Transfer (TR-FRET) Assay. Tb-anti-GST antibody was purchased from Invitrogen (Catalog No. PV4216).
Representative compounds were serially diluted in dimethyl sulfoxide (DMSO) starting at 50 μM (2× starting concentration; 10% DMSO) and 10 μL were transferred into a 384-well plate. The samples are then mixed on a shaker for 1 minute and incubated for an additional 3 hours at room temperature. For each assay, the probe/antibody and protein/probe/antibody were included on each assay plate as negative and positive controls, respectively. Fluorescence was measured on the ENVISION plate reader (Perkin Elmer) using a 340/35 nm excitation filter and 520/525 (F-Bak peptide) and 495/510 nm (Tb-labeled […] antibody) emission filters Inhibition constants (Ki) are shown in TABLE 2 below and were determined using Wang's equation (Wang Z.-X. An Exact Mathematical Expression For Describing Competitive Binding Of Two Different Ligands To A Protein Molecule. FEBS Lett. 1995, 360:111-4).
The inhibition constant (Ki) is the dissociation constant of an enzyme-inhibitor complex or a protein/small molecule complex, wherein the small molecule is inhibiting binding of one protein to another protein. So a large K, value indicates a low binding affinity and a small Ki value indicates a high binding affinity.
The compounds are therefore expected to have utility in treatment of diseases during which anti-apoptotic Bcl-2 protein is expressed.

Bcl-2, sequence (P10415 whole entry): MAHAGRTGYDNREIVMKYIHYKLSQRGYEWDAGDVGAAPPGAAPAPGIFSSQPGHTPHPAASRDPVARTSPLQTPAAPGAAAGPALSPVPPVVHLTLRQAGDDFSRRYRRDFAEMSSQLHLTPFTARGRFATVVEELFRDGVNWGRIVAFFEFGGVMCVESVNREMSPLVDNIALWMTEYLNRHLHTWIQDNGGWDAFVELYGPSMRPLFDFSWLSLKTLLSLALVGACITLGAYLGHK

SMILES	Ki [nM]
CCC(CC)NC(=O)c1nnc(S(=O)(=O)NC(=O)c2ccc(N3CCN(Cc4ccccc4-c4ccc(Cl)cc4)CC3)cc2)s1 [Example 28, 5-{[(4-{4-[(4′-chloro-1,1′-biphenyl-2-yl)methyl]piperazin-1-yl}benzoyl)amino]sulfonyl}-N-(1-ethylpropyl)-1,3,4-thiadiazole-2-carboxamide]	417
Cc1nn(C)c(Cl)c1S(=O)(=O)NC(=O)c1ccc(N2CCN(Cc3ccccc3-c3ccc(Cl)cc3)CC2)cc1 [Example 29, 4-{4-[(4′-chloro-1,1′-biphenyl-2-yl)methyl]piperazin-1-yl}-N-[(5-chloro-1,3-dimethyl-1H-pyrazol-4-yl)sulfonyl]benzamide]	340
O=C(NS(=O)(=O)c1cc([N+](=O)[O-])c(N2CCCCC2)s1)c1ccc(N2CCN(Cc3ccccc3-c3ccc(Cl)cc3)CC2)cc1 [Example 30, 4-{4-[(4′-chloro-1,1′-biphenyl-2-yl)methyl]piperazin-1-yl}-N-[(4-nitro-5-piperidin-1-ylthien-2-yl)sulfonyl]benzamide]	269
O=C(NS(=O)(=O)c1ccc(-c2ccno2)o1)c1ccc(N2CCN(Cc3ccccc3-c3ccc(Cl)cc3)CC2)cc1 [Example 31, 4-{4-[(4′-chloro-1,1′-biphenyl-2-yl)methyl]piperazin-1-yl}-N-[(5-isoxazol-5-yl-2-furyl)sulfonyl]benzamide]	139
Cc1noc(C)c1S(=O)(=O)NC(=O)c1ccc(N2CCN(Cc3ccccc3-c3ccc(Cl)cc3)CC2)cc1 [Example 32, 4-{4-[(4′-chloro-1,1′-biphenyl-2-yl)methyl]piperazin-1-yl}-N-[(3,5-dimethylisoxazol-4-yl)sulfonyl]benzamide]	438
CC1(C)CCC(CN2CCN(c3ccc(C(=O)NS(=O)(=O)c4cc([N+](=O)[O-])c(NCCCN5CCCC5)s4)c(Oc4ccc5[nH]ccc5c4)c3)CC2)=C(c2ccc(Cl)cc2)C1 [Example 33, 4-(4-{[2-(4-chlorophenyl)-4,4-dimethylcyclohex-1-en-1-yl]methyl}piperazin-1-yl)-2-(1H-indol-5-yloxy)-N-({4-nitro-5-[(3-pyrrolidin-1-ylpropyl)amino]thien-2-yl}sulfonyl)benzamide]	0.649
CN(C)CCCNc1sc(S(=O)(=O)NC(=O)c2ccc(N3CCN(CC4=C(c5ccc(Cl)cc5)CC(C)(C)CC4)CC3)cc2Oc2ccc3[nH]ccc3c2)cc1[N+](=O)[O-] [Example 34, 4-(4-{[2-(4-chlorophenyl)-4,4-dimethylcyclohex-1-en-1-yl]methyl}piperazin-1-yl)-N-[(5-{[3-(dimethylamino)propyl]amino}-4-nitrothien-2-yl)sulfonyl]-2-(1H-indol-5-yloxy)benzamide]	1.79
CC1(C)CCC(CN2CCN(c3ccc(C(=O)NS(=O)(=O)c4cc([N+](=O)[O-])c(NCCCN5CCOCC5)s4)c(Oc4ccc5[nH]ccc5c4)c3)CC2)=C(c2ccc(Cl)cc2)C1 [Example 35, 4-(4-{[2-(4-chlorophenyl)-4,4-dimethylcyclohex-1-en-1-yl]methyl}piperazin-1-yl)-2-(1H-indol-5-yloxy)-N-({5-[(3-morpholin-4-ylpropyl)amino]-4-nitrothien-2-yl}sulfonyl)benzamide]	2.07
CN(C)CC[C@H](CSc1ccccc1)Nc1sc(S(=O)(=O)NC(=O)c2ccc(N3CCC(=Cc4ccccc4C(F)(F)F)CC3)cc2)cc1[N+](=O)[O-] [Example 36, N-{[5-({(1R)-3-(dimethylamino)-1-[(phenylthio)methyl]propyl}amino)-4-nitrothien-2-yl]sulfonyl}-4-{4-[2-(trifluoromethyl)benzylidene]piperidin-1-yl}benzamide]	294
Cc1c(S(=O)(=O)NC(=O)c2ccc(N3CCN(Cc4ccccc4-c4ccc(Cl)cc4)CC3)cc2Oc2ccccc2)sc2ccc(Cl)cc12 [Example 39, 4-{4-[(4′-chloro-1,1′-biphenyl-2-yl)methyl]piperazin-1-yl}-N-[(5-chloro-3-methyl-1-benzothien-2-yl)sulfonyl]-2-phenoxybenzamide]	20.2
Cc1cc(C)n2nc(S(=O)(=O)NC(=O)c3ccc(N4CCN(CC5=C(c6ccc(Cl)cc6)CC(C)(C)CC5)CC4)cc3Oc3cccc(Cl)c3)nc2n1 [Example 40, 2-(3-chlorophenoxy)-4-(4-{[2-(4-chlorophenyl)-4,4-dimethylcyclohex-1-en-1-yl]methyl}piperazin-1-yl)-N-[(5,7-dimethyl[1,2,4]triazolo[1,5-a]pyrimidin-2-yl)sulfonyl]benzamide]	0.407
Cc1cc(C)n2nc(S(=O)(=O)NC(=O)c3ccc(N4CCN(CC5=C(c6ccc(Cl)cc6)CC(C)(C)CC5)CC4)cc3Oc3cc4cc[nH]c4cc3F)nc2n1 [Example 41, 4-(4-{[2-(4-chlorophenyl)-4,4-dimethylcyclohex-1-en-1-yl]methyl}piperazin-1-yl)-N-[(5,7-dimethyl[1,2,4]triazolo[1,5-a]pyrimidin-2-yl)sulfonyl]-2-[(6-fluoro-1H-indol-5-yl)oxy]benzamide]	0.053
Cc1cc(C)n2nc(S(=O)(=O)NC(=O)c3ccc(N4CCN(CC5=C(c6ccc(Cl)cc6)CC(C)(C)CC5)CC4)cc3Oc3cc4cc[nH]c4c(F)c3F)nc2n1 [Example 42, 4-(4-{[2-(4-chlorophenyl)-4,4-dimethylcyclohex-1-en-1-yl]methyl}piperazin-1-yl)-2-[(6,7-difluoro-1H-indol-5-yl)oxy]-N-[(5,7-dimethyl[1,2,4]triazolo[1,5-a]pyrimidin-2-yl)sulfonyl]benzamide]	0.039
Cc1nc(OC[C@@H]2CN(C(=O)OC(C)(C)C)CCO2)sc1S(=O)(=O)NC(=O)c1ccc(N2CCN(CC3=C(c4ccc(Cl)cc4)CC(C)(C)CC3)CC2)cc1Oc1cnc2[nH]ccc2c1 [Example 43, tert-butyl (2S)-2-{[(5-{[4-(4-{[2-(4-chlorophenyl)-4,4-dimethylcyclohex-1-en-1-yl]methyl}piperazin-1-yl)-2-(1H-pyrrolo[2,3-b]pyridin-5-yloxy)benzoyl]sulfamoyl}-4-methyl-1,3-thiazol-2-yl)oxy]methyl}morpholine-4-carboxylate]	46.5
Cc1nc(OC[C@@H]2CN(C(=O)OC(C)(C)C)CCO2)sc1S(=O)(=O)NC(=O)c1ccc(N2CCN(CC3=C(c4ccc(Cl)cc4)CC(C)(C)CC3)CC2)cc1Oc1cccc2[nH]cnc12 [Example 44, tert-butyl (2S)-2-{[(5-{[2-(1H-benzimidazol-4-yloxy)-4-(4-{[2-(4-chlorophenyl)-4,4-dimethylcyclohex-1-en-1-yl]methyl}piperazin-1-yl)benzoyl]sulfamoyl}-4-methyl-1,3-thiazol-2-yl)oxy]methyl}morpholine-4-carboxylate]	24.8
Cc1nc(OCC2(F)CCOCC2)sc1S(=O)(=O)NC(=O)c1ccc(N2CCN(CC3=C(c4ccc(Cl)cc4)CC(C)(C)CC3)CC2)cc1Oc1cnc2[nH]ccc2c1 [Example 45, 4-(4-{[2-(4-chlorophenyl)-4,4-dimethylcyclohex-1-en-1-yl]methyl}piperazin-1-yl)-N-({2-[(4-fluorotetrahydro-2H-pyran-4-yl)methoxy]-4-methyl-1,3-thiazol-5-yl}sulfonyl)-2-(1H-pyrrolo[2,3-b]pyridin-5-yloxy)benzamide]	6.73
Cc1nc(OCC2(F)CCOCC2)sc1S(=O)(=O)NC(=O)c1ccc(N2CCN(CC3=C(c4ccc(Cl)cc4)CC(C)(C)CC3)CC2)cc1Oc1cccc2[nH]cnc12 [Example 46, 2-(1H-benzimidazol-4-yloxy)-4-(4-{[2-(4-chlorophenyl)-4,4-dimethylcyclohex-1-en-1-yl]methyl}piperazin-1-yl)-N-({2-[(4-fluorotetrahydro-2H-pyran-4-yl)methoxy]-4-methyl-1,3-thiazol-5-yl}sulfonyl)benzamide]	1.75
Cc1nc(OC[C@@H]2CN(C(=O)OC(C)(C)C)CCO2)sc1S(=O)(=O)NC(=O)c1ccc(N2CCN(CC3=C(c4ccc(Cl)cc4)CC(C)(C)CC3)CC2)cc1Oc1cccc2[nH]ncc12 [Example 47, (S)-tert-butyl 2-((5-(N-(2-(1H-indazol-4-yloxy)-4-(4-((2-(4-chlorophenyl)-4,4-dimethylcyclohex-1-enyl)methyl)piperazin-1-yl)benzoyl)sulfamoyl)-4-methylthiazol-2-yloxy)methyl)morpholine-4-carboxylate]	20.4
Cc1nc(OCC2(F)CCOCC2)sc1S(=O)(=O)NC(=O)c1ccc(N2CCN(CC3=C(c4ccc(Cl)cc4)CC(C)(C)CC3)CC2)cc1Oc1cccc2[nH]ncc12 [Example 48, 2-(1H-indazol-4-yloxy)-4-(4-((2-(4-chlorophenyl)-4,4-dimethylcyclohex-1-enyl)methyl)piperazin-1-yl)-N-(2-((4-fluorotetrahydro-2H-pyran-4-yl)methoxy)-4-methylthiazol-5-ylsulfonyl)benzamide]	1.64

Reference: patent US9156856B2, “Apoptosis-inducing agents for the treatment of cancer and immune and autoimmune diseases” (AbbVie Inc., priority 2009, dated 2015)
